In patent US20260335282A1, “NOVEL 3-ARYLIDENE-2-INDOLINONE DERIVATIVES FOR THERAPEUTIC USE” (ISTANBUL UNIVERSITESI REKTORLUGU, priority 2022, published 2026):
Entries after “also recorded” stand apart in the source; their conditions may differ. Read-outs that look alike come from different tables or passages of the source.

Key:
Format in all cases: cell-based, human
MIAPaCa-2 cells [1] = test: MTT cytotoxicity, pancreas cancer cells MIAPaCa-2; conditions: for selectivity index: MCF-10F/Beas2b vs MIAPaCa-2; for IC50: MTT
Excerpt: (§1) The cytotoxicity, general tyrosine kinase inhibitory effects and cell death (apoptosis/necrosis) assays of 1-benzyl-3-(1H-indol-3-ylmethylidene)-1,3-dihydro-2H-indol-2-one derivatives (Formula 5) of the present invention are studied by the following methods. […] HUVEC (human umbilical vein endothelial cell), MCF-10F (human breast epithelial cell) and Beas2b (human lung bronchial epithelial cell) cell lines have been used as healthy control cells in MTT experiments.
(§2) Beas2b (human lung bronchiole epithelial cell) and HEK293 (renal tubule epithelium) cells used as normal cell lines were cultured in RPMI medium, and HUVEC (human umbilical cord endothelial cells) and MCF-10F (human breast epithelial cell) cells are cultured in DMEM medium containing 100 µg/ml penicillin/streptomycin. The cells, which covered 70% of the culture flask, are washed with phosphate buffer and then removed from the surface of the flask by application of trypsin-ethylenediamine tetraacetic acid (Trypsin-EDTA; 0.25%) solution, passaged, counted and seeded on appropriate plates before each experiment. Cells are treated with a total of 45 2-indolinone compounds (5) at concentrations of 0.1, 1, 5 and 10 μM. Stock compounds are prepared in 1 ml dimethylsulfoxide (DMSO) and 4 different dilutions were prepared with medium and performed to the cells. Control group cells are treated with DMSO at a similar concentration to the experimental groups.
(§3) MTT (3-(4,5-dimethylthiazol-2-yl)-2,5-diphenyl-2H-tetrazolium bromide) colorimetric assay provides quantitation of viable cells with ongoing mitochondrial activity in culture medium. According to the standard procedure in cell culture conditions, cells are maintained in RPMI-1640 and DMEM culture media containing 10% FBS and 1% penicillin/streptomycin. The trypan blue test is used for cell counts.
(§4) The effects of 45 2-indolinone compounds (5) on cell viability in all cancer cell lines are investigated by MTT assay. Cells are seeded in a 96-well flat bottom plate with 5000 cells in each well and 2-indolinone compounds (5) at concentrations of 0.1, 1, 5 and 10 μM are performed to the cells the next day. After 48 and/or 72 hours following treatment with 2-indolinone compounds, 50 μl of the supernatant is slowly discarded (as it was acid medium) and MTT at a concentration of 5 mg/ml is added to each well in a volume of 10 μl. After incubation for 4 hours, the formazan crystals formed in the wells are dissolved by adding 100 μl DMSO and the optical density is read at 570 nm test wavelength and 630 nm reference wavelength. Cell viability is expressed as % cell viability by comparing the absorbance of control and test wells. IC50 value is calculated from the dose-response curves prepared for each compound. In addition, the possible DMSO effect is eliminated by preparing negative control wells compatible with the amount of DMSO contained in the compounds. To understand the reaction of the compounds with MTT, cell-free (MTT+compounds) negative controls are prepared at the concentrations used (Mosmann, 1983). […] The absorbance values obtained are compared to the control and statistically evaluated by unpaired t-test using “Graphpad Prism 5.04” software. “P<0.05” is accepted as significant. When evaluating cytotoxic effects, the present inventors aim for the inventive compounds to be effective in cancer cells and ineffective in healthy cells. The inventive compounds have also been compared with sunitinib, one of the reference chemotherapy drugs currently used in treatment.

CAKI-1 cells = test: MTT cytotoxicity, kidney cancer cells CAKI-1
Excerpt: as §1, §2, §3, §4
(§5) Among the compounds of the present invention, those that killed cancer cells by at least 50% (p<0.05) are selected and tested whether a 10-fold concentration of the M concentration at the IC50 value is toxic to normal healthy cells.

A549 cells = test: MTT cytotoxicity, lung cancer cells A549; conditions: no * mark (incubation time not specified)
Excerpt: as §1, §2, §3, §4, §5

HT-29 cells = test: MTT cytotoxicity, colon cancer cells HT-29; conditions: MTT, no * mark (incubation time not specified)
Excerpt: as §1, §2, §3, §4

[2] = tested on: pancreas and kidney cancer cells; test: Apoptosis detection, Annexin V/PI flow cytometry, pancreas and kidney cancer cells
Procedure: (§6) After incubation with 2-indolinone compounds (IC50 μM concentration; 48 and/or 72 hours), cells are washed twice with PBS and the cell pellet is suspended in Annexin V binding buffer. After this incubation, cells are incubated with FITC-conjugated Annexin V and propidium iodine staining solution for 15 minutes in the dark and at room temperature. Then, cells are analyzed by flow cytometry (Beckman coulter, Navios) (Wlodkowic, D., Skommer, J, Darzynkiewicz, Z. 2009. Flow cytometry-based apoptosis detection, Methods Mol Biol., 559, 1-14).
Whether the 2-indolinone derivatives (5) with the highest selectivity index and general TKI activity stimulated apoptosis and necrosis is determined by Annexin V and propidium iodine staining in pancreas and kidney cancer cells. Annexin V/PI flow cytometry apoptosis values of the tested compounds Y1, Y2, Y3, Y4, Y8 and Y14 are found to be 40% and above in correlation with MTT results. The apoptosis rates of the control groups and the substances are analyzed by t test in GraphPad version 9.0.

HCT-116 cells = test: MTT cytotoxicity, colon cancer cells HCT-116; conditions: no * mark (incubation time not specified)
Excerpt: as §1, §2, §3, §4

MCF-10F/Beas2b cells = test: MTT cytotoxicity, healthy cells MCF-10F/Beas2b; conditions: for Selectivite Index, MCF-10F/Beas2b (Table 2): MCF-10F/Beas2b vs colon or pancreas cancer cells; for IC50: MTT
Excerpt: as §1, §2, §3, §4, §5

HUVEC cells = test: MTT cytotoxicity, healthy cells HUVEC; conditions: for Selectivite Index, HUVEC (Table 2): HUVEC vs colon or pancreas cancer cells; for IC50: MTT, no * mark (incubation time not specified)
Excerpt: as §1, §2, §3, §4, §5

A498 cells = test: MTT cytotoxicity, kidney cancer cells A498; conditions: MTT
Excerpt: as §1, §2, §3, §4, §5

MCF-7 cells = test: MTT cytotoxicity, breast cancer cells MCF-7; conditions: MTT
Excerpt: as §1, §2, §3, §4, §5

MDA-MB-231 cells = test: MTT cytotoxicity, breast cancer cells MDA-MB-231; conditions: read-out: IC50, MDA-MB-231 (breast), MTT
Excerpt: as §1, §2, §3, §4, §5

[3] = tested on: general tyrosine kinase activity in MIA PaCa-2 pancreas cancer cells; test: General tyrosine kinase activity (ELISA) in MIAPaCa-2 cells; conditions: 72 hours, IC50 concentration
Procedure: Takara Universal Tyrosine Kinase Assay Kit is used to determine the effects of 11 2-indolinone compounds (Y1, Y2, Y3, Y4, Y5, Y8, […], […], Y21, Y23, 20C, 22C) on general tyrosine kinase activity in cancer cells. Cells are seeded in 6-well plates (4.10^5 cells/well) and the IC50 concentration of each selected molecule is performed to the cells for 48 or 72 hours. Cells in the control group are incubated with medium only. At the end of the incubation period, the cells in each well are washed with PBS and cells are removed from the wells using a cell scraper via 1 ml of the extraction buffer in the kit. The cell lysate is transferred to ependorf tubes and centrifuged at 10.000 g for 10 minutes at +4° C. and the supernatant is used as a sample for activity determination. After the extracts obtained from the control and experimental groups are diluted 1:25, 40 μl extracts is transferred to two wells in the 96-well plate in the kit. In addition, the standard solution in the kit is diluted according to the kit instructions and each concentration is transferred 40 μl into three wells. 10 μl of 40 mM ATP-2Na solution is added to all wells and the plate is incubated at 37° C. for 30 minutes. After incubation, all wells are washed 4 times with wash buffer. 100 μl of blocking solution is added to each well and incubated again at 37° C. for 30 minutes. After incubation, the liquid in the wells is discarded and 50 μl of anti-phosphotyrosine-HRP solution is added to each well and incubated at 37° C. for 30 minutes. The wells are washed again four times with wash buffer and 100 μl of HRP-substrate solution (TMBZ) is added to each well and incubated at 37° C. for 15 minutes. The reaction is finished by adding 100 μl of stop solution to each well and the optical density in each well is measured at 405 nm with a microplate reader (BioTek, USA). The tyrosine kinase activity in each sample is calculated from the standard curve obtained from the absorbance values of the standard solutions with the kit (Chan W Y, Lau P M, Yeung K W, Kong S K. The second generation tyrosine kinase inhibitor dasatinib induced eryptosis in human erythrocytes—An in vitro study. Toxicol Lett. 2018; 295:10-21). This activity is normalized compared to the control group by dividing by the amount of protein in each sample.
The effects of 11 2-indolinone compounds (Y1, Y2, Y3, Y4, Y5, Y8, Y14, Y21, Y23, 20C and 22C) having the structure of formula (5), which are prominent with their cytotoxicity in A498, MIAPaCa-2 and HCT-116 cancer cell lines and nontoxic properties in healthy cells, on general tyrosine kinase activity in cancer cells are determined.

MIAPaCa-2 cells [4] = test: Apoptosis/necrosis detection, Annexin V/PI flow cytometry, MiaPaca-2
Procedure: as §6

[5] = no * mark (incubation time not specified)
[6] = no * mark (incubation time not given)
[7] = *: effective 72 hours after incubation

SMILES	selectivity index (MIAPaCa-2 cells [1])	IC50 (MIAPaCa-2 cells [1]; [5]) [µM]	IC50 (CAKI-1 cells; [5]) [µM]	IC50 (A549 cells) [µM]	IC50 (HT-29 cells) [µM]	IC50 (HCT-116 cells) [µM]	Selectivite Index, MCF-10F/Beas2b (Table 2) (MCF-10F/Beas2b cells; cancer line not given)	Selectivite Index, HUVEC (Table 2) (HUVEC cells; cancer line not given)	IC50 (HUVEC cells) [µM]	IC50 (A498 cells; [5]) [µM]	IC50 (MCF-7 cells; [5]) [µM]	IC50 (MDA-MB-231 cells; [6]) [µM]	general tyrosine kinase activity compared to control [3]	IC50 (CAKI-1 cells; [7]) [µM]	IC50 (MCF-10F/Beas2b cells; [5]) [µM]	also measured
O=C1/C(=C\c2c[nH]c3ccccc23)c2cc(Cl)ccc2N1Cc1ccccc1 [Y2]	> 21	0.48	4.25	4.04	1.52	1.44	> 20.83	2.21	1.06	2.36	4.16	4.96	significantly decreased; also recorded: decreased the general tyrosine kinase activity			Annexin V/PI flow cytometry apoptosis values [2]: ≥ 40%
Cc1ccc(CN2C(=O)/C(=C\c3c[nH]c4ccccc34)c3ccccc32)cc1 [Y21]	> 25	0.4	> 10	> 10	> 10	3.14	> 25.00	6.15	2.46	4.06	8.77	> 10	significantly decreased			IC50 (MIAPaCa-2 cells [1]): 0.4 µM
O=C1/C(=C\c2c[nH]c3ccccc23)c2cc(F)ccc2N1Cc1ccccc1 [Y5]	> 37	0.27	3.42	7.81	2.98	2.05	> 37.04	8.04	2.17	4.32	4.44	7.94	significantly decreased; also recorded: decreased the general tyrosine kinase activity			necrosis compared to control (MIAPaCa-2 cells [4]; MiaPaca-2): did not cause necrosis; apoptosis (early and late) compared to control (MIAPaCa-2 cells [4]; MiaPaca-2, IC50 values): increase in apoptosis at IC50 values was statistically significant
O=C1/C(=C\c2c[nH]c3ccccc23)c2cc(OC(F)(F)F)ccc2N1Cc1cccc(Cl)c1 [4C]				2.42	> 10	1.13			0.97	3.05				2.79	1.73	IC50 (MIAPaCa-2 cells [1]; [7]): 3.67 µM; IC50 (MCF-7 cells; [7]): 3.06 µM; IC50 (MDA-MB-231 cells; [7]): 3.07 µM
O=C1/C(=C\c2c[nH]c3ccccc23)c2cccc(Cl)c2N1Cc1ccc(F)cc1 [24C]		1.12		8.08	0.73	2.35			1.26	2.6	5.08	7.41		5.72	1.26	
Cc1ccc(CN2C(=O)/C(=C\c3c[nH]c4ccccc34)c3cccc(Cl)c32)cc1 [28C]		> 10		> 10	> 10	> 10			> 10		> 10	> 10		7.66		Selectivite Index (SI), MCF-10F/Beas2b (Table 1) (MCF-10F/Beas2b cells; MCF-10F/Beas2b vs breast or kidney cancer cells, cancer line not given): 1.5; IC50 (MCF-10F/Beas2b cells; [7]): 1.78 µM; Selectivite Index (SI), HUVEC (Table 1) (HUVEC cells; HUVEC vs breast or kidney cancer cells, cancer line not given): > 15.6; IC50 (A498 cells; [7]): 0.6 µM
